Test results as given in patent publication US8906909B2 (Curis, Inc., priority 2009, dated 2014).

system: HDACs (HeLa cell nuclear extracts); assay: HDAC enzymatic activity, Biomol Color de Lys system; type: biochemical
Protocol: (e) An In Vitro Assay which Determines the Ability of a Test Compound to Inhibit HDAC Enzymatic Activity.
HDAC inhibitory activity was assessed using the Biomol Color de Lys system (AK-500, Biomol, Plymouth Meeting, Pa.). Briefly, HeLa cell nuclear extracts were used as a source of HDACs. Different concentrations of test compounds were serially diluted in dimethylsulphoxide (DMSO) and added to HeLa cell nuclear extracts in the presence of a colorimetric artificial substrate. Final assay condition contained 50 mM Tris/Cl, pH 8.0, 137 mM NaCl, 2.7 mM KCl and 1 mM MgCl2. Reactions were carried in room temperature (25° C.) for 1 hour before addition of developer for termination. Relative enzyme activity was measured in the WALLAC Victor II 1420 microplate reader as floorescence intensity (excitation: 350-380 nm; emission: 440-460 nm). Data were analyzed using GraphPad Prism (v4.0a) with a sigmoidal dose response curve fitting for IC50 calculation.

Question: How did the IC50 turn out when `O=C(CCCCNc1cc2nc(-c3cccc4[nH]ncc34)nc(N3CCOCC3)c2s1)NO` [Compound 18] was run?
Answer: < 0.1 µM

Question: With `O=C(CCCCCNc1cc2nc(-c3cccc4[nH]ncc34)nc(N3CCOCC3)c2s1)NO` [Compound 19] as the compound, how does the IC50 read?
Answer: < 0.1 µM

Question: How did the IC50 turn out when `O=C(CCCCCCNc1cc2nc(-c3cccc4[nH]ncc34)nc(N3CCOCC3)c2s1)NO` [Compound 20] was run?
Answer: < 0.1 µM

Question: For `CS(=O)(=O)N1CCN(Cc2cc3nc(-c4cccc5[nH]ncc45)nc(NCCCCC(=O)NO)c3s2)CC1` [Compound 34], which IC50 is on record?
Answer: 0.1 to 1 µM

Question: For `CS(=O)(=O)N1CCN(Cc2cc3nc(-c4cccc5[nH]ncc45)nc(NCCCCCC(=O)NO)c3s2)CC1` [Compound 35], which IC50 is on record?
Answer: < 0.1 µM

Question: For `CS(=O)(=O)N1CCN(Cc2cc3nc(-c4cccc5[nH]ncc45)nc(NCCCCCCC(=O)NO)c3s2)CC1` [Compound 36], which IC50 is on record?
Answer: < 0.1 µM

Question: With `O=C(NO)c1cc2nc(-c3cccc4[nH]ncc34)nc(N3CCOCC3)c2s1` [Compound 45] as the compound, how does the IC50 read?
Answer: > 10 µM

Question: For `O=C(/C=C/c1cc2nc(-c3cccc4[nH]ncc34)nc(N3CCOCC3)c2s1)NO` [Compound 46], which IC50 is on record?
Answer: 1 to 10 µM

Question: `O=C(NO)c1cnc(N2CCC(CNc3cc4nc(-c5cccc6[nH]ncc56)nc(N5CCOCC5)c4s3)CC2)nc1` [Compound 48] was tested. Which IC50 did it give?
Answer: < 0.1 µM

Question: `CN(CC1CCN(c2ncc(C(=O)NO)cn2)CC1)c1cc2nc(-c3cccc4[nH]ncc34)nc(N3CCOCC3)c2s1` [Compound 49] was tested. Which IC50 did it give?
Answer: 0.1 to 1 µM

Question: How did the IC50 turn out when `O=C(/C=C/c1ccc(S(=O)(=O)Nc2cc3nc(-c4cccc5[nH]ncc45)nc(N4CCOCC4)c3s2)cc1)NO` [Compound 50] was run?
Answer: < 0.1 µM

Question: For `O=C(NO)c1cnc(N2CCN(S(=O)(=O)c3cc4nc(-c5cccc6[nH]ncc56)nc(N5CCOCC5)c4s3)CC2)nc1` [Compound 51], which IC50 is on record?
Answer: 0.1 to 1 µM

Question: Which IC50 does the source give for `CN(Cc1cc2nc(-c3cccc4[nH]ncc34)nc(N3CCNCC3)c2s1)c1ncc(C(=O)NO)cn1` [Compound 60] here?
Answer: < 0.1 µM

Question: For `CN1CCN(c2nc(-c3cccc4[nH]ncc34)nc3cc(CN(C)c4ncc(C(=O)NO)cn4)sc23)CC1` [Compound 61], which IC50 is on record?
Answer: < 0.1 µM

Question: For `CC(=O)N1CCN(c2nc(-c3cccc4[nH]ncc34)nc3cc(CN(C)c4ncc(C(=O)NO)cn4)sc23)CC1` [Compound 62], which IC50 is on record?
Answer: < 0.1 µM

Question: How did the IC50 turn out when `CN(Cc1cc2nc(-c3cccc4[nH]ncc34)nc(N3CCN(CCO)CC3)c2s1)c1ncc(C(=O)NO)cn1` [Compound 63] was run?
Answer: < 0.1 µM

Question: With `CC1CN(c2nc(-c3cccc4[nH]ncc34)nc3cc(CN(C)c4ncc(C(=O)NO)cn4)sc23)CC(C)O1` (stereo not shown) [Compound 65] as the compound, how does the IC50 read?
Answer: < 0.1 µM

Question: With `CC1COCC(C)N1c1nc(-c2cccc3[nH]ncc23)nc2cc(CN(C)c3ncc(C(=O)NO)cn3)sc12` (stereo not shown) [Compound 66] as the compound, how does the IC50 read?
Answer: < 0.1 µM

Question: How did the IC50 turn out when `CN(Cc1cc2nc(-c3cccc4[nH]ncc34)nc(N3CCCCC3)c2s1)c1ncc(C(=O)NO)cn1` [Compound 67] was run?
Answer: < 0.1 µM

Question: How did the IC50 turn out when `Cc1c(CN(C)c2ncc(C(=O)NO)cn2)sc2c(N3CCOCC3)nc(-c3cccc4[nH]ncc34)nc12` [Compound 68] was run?
Answer: < 0.1 µM

Question: For `CC(C)(Nc1ncc(C(=O)NO)cn1)c1cc2nc(-c3cccc4[nH]ncc34)nc(N3CCOCC3)c2s1` [Compound 71], which IC50 is on record?
Answer: < 0.1 µM

Question: How did the IC50 turn out when `O=C(NO)c1cnc(NCc2cc3cc(-c4cccc5[nH]ncc45)nc(N4CCOCC4)c3s2)nc1` [Compound 73] was run?
Answer: < 0.1 µM

Question: Which IC50 does the source give for `CN(Cc1cc2cc(-c3cccc4[nH]ncc34)nc(N3CCOCC3)c2s1)c1ncc(C(=O)NO)cn1` [Compound 74] here?
Answer: < 0.1 µM

Question: `CN(Cc1cc2nc(-c3cccc4[nH]ncc34)nc(N3CCOCC3)c2s1)c1ccc(C(=O)NO)cc1` [Compound 79] was tested. Which IC50 did it give?
Answer: < 0.1 µM

Question: With `O=C(O)CN(Cc1cc2nc(-c3cccc4[nH]ncc34)nc(N3CCOCC3)c2s1)c1ncc(C(=O)NO)cn1` [Compound 88] as the compound, how does the IC50 read?
Answer: 0.1 to 1 µM

Question: For `COC(=O)CN(Cc1cc2nc(-c3cccc4[nH]ncc34)nc(N3CCOCC3)c2s1)c1ncc(C(=O)NO)cn1` [Compound 89], which IC50 is on record?
Answer: < 0.1 µM

Question: For `NCCN(Cc1cc2nc(-c3cccc4[nH]ncc34)nc(N3CCOCC3)c2s1)c1ncc(C(=O)NO)cn1` [Compound 94], which IC50 is on record?
Answer: < 0.1 µM

Question: Which IC50 does the source give for `CN(C)CCN(Cc1cc2nc(-c3cccc4[nH]ncc34)nc(N3CCOCC3)c2s1)c1ncc(C(=O)NO)cn1` [Compound 95] here?
Answer: 0.1 to 1 µM

Question: Which IC50 does the source give for `CC(=O)NCCN(Cc1cc2nc(-c3cccc4[nH]ncc34)nc(N3CCOCC3)c2s1)c1ncc(C(=O)NO)cn1` [Compound 96] here?
Answer: < 0.1 µM

Question: How did the IC50 turn out when `NC(=O)CN(Cc1cc2nc(-c3cccc4[nH]ncc34)nc(N3CCOCC3)c2s1)c1ncc(C(=O)NO)cn1` [Compound 97] was run?
Answer: < 0.1 µM

Question: How did the IC50 turn out when `C#CCCN(Cc1cc2nc(-c3cccc4[nH]ncc34)nc(N3CCOCC3)c2s1)c1ncc(C(=O)NO)cn1` [Compound 98] was run?
Answer: < 0.1 µM

Question: Which IC50 does the source give for `O=C(NO)c1ccc2c(ccn2Cc2cc3nc(-c4cccc5[nH]ncc45)nc(N4CCOCC4)c3s2)c1` [Compound 105] here?
Answer: 0.1 to 1 µM

Question: With `Cn1cc(CNc2cc3nc(-c4cccc5[nH]ncc45)nc(N4CCOCC4)c3s2)c2cc(C(=O)NO)ccc21` [Compound 106] as the compound, how does the IC50 read?
Answer: 1 to 10 µM

Question: `CN(Cc1cc2nc(-c3cnc(C(N)=O)nc3)nc(N3CCOCC3)c2s1)c1ncc(C(=O)NO)cn1` [Compound 122] was tested. Which IC50 did it give?
Answer: < 0.1 µM

Question: For `CN(Cc1cc2nc(-c3cccc(C(N)=O)c3)nc(N3CCOCC3)c2s1)c1ncc(C(=O)NO)cn1` [Compound 142, 2-(((2-(3-carbamoylphenyl)-4-morpholinothieno[3,2-d]pyrimidin-6-yl)methyl)(methyl)amino)-N-hydroxypyrimidine-5-carboxamide], which IC50 is on record?
Answer: < 0.1 µM

Question: `CCN(CC)c1nc(-c2cccc3[nH]ncc23)nc2cc(CN(C)c3ncc(C(=O)NO)cn3)sc12` [Compound 158] was tested. Which IC50 did it give?
Answer: < 0.1 µM

Question: Which IC50 does the source give for `CN(C)c1nc(-c2cccc3[nH]ncc23)nc2cc(CN(C)c3ncc(C(=O)NO)cn3)sc12` [Compound 159] here?
Answer: < 0.1 µM

Question: For `COCCNc1nc(-c2cccc3[nH]ncc23)nc2cc(CN(C)c3ncc(C(=O)NO)cn3)sc12` [Compound 160], which IC50 is on record?
Answer: < 0.1 µM

Question: How did the IC50 turn out when `CN(Cc1cc2nc(-c3cccc4[nH]ncc34)nc(NCCO)c2s1)c1ncc(C(=O)NO)cn1` [Compound 161] was run?
Answer: < 0.1 µM

Question: Which IC50 does the source give for `CN(Cc1cc2nc(-c3cccc4[nH]ncc34)nc(N(CCO)CCO)c2s1)c1ncc(C(=O)NO)cn1` [Compound 162] here?
Answer: < 0.1 µM

Question: Which IC50 does the source give for `COCCN(CCOC)c1nc(-c2cccc3[nH]ncc23)nc2cc(CN(C)c3ncc(C(=O)NO)cn3)sc12` [Compound 163] here?
Answer: < 0.1 µM

Question: How did the IC50 turn out when `COc1ccc(Nc2nc(-c3cccc4[nH]ncc34)nc3cc(CN(C)c4ncc(C(=O)NO)cn4)sc23)cc1` [Compound 165] was run?
Answer: < 0.1 µM

Question: Which IC50 does the source give for `COc1cccc(Nc2nc(-c3cccc4[nH]ncc34)nc3cc(CN(C)c4ncc(C(=O)NO)cn4)sc23)c1` [Compound 166] here?
Answer: < 0.1 µM

Question: `COc1ccccc1Nc1nc(-c2cccc3[nH]ncc23)nc2cc(CN(C)c3ncc(C(=O)NO)cn3)sc12` [Compound 167] was tested. Which IC50 did it give?
Answer: < 0.1 µM

Question: For `CN(Cc1cc2nc(-c3cccc4c3CC(=O)N4)nc(N3CCOCC3)c2s1)c1ncc(C(=O)NO)cn1` [Compound 178], which IC50 is on record?
Answer: < 0.1 µM

Question: For `CN(Cc1cc2nc(-c3cccc4c3CNC4=O)nc(N3CCOCC3)c2s1)c1ncc(C(=O)NO)cn1` [Compound 181], which IC50 is on record?
Answer: < 0.1 µM

Question: How did the IC50 turn out when `CN(Cc1cc2nc(-c3ccc4c(c3)NC(=O)CO4)nc(N3CCOCC3)c2s1)c1ncc(C(=O)NO)cn1` [Compound 183] was run?
Answer: < 0.1 µM

Question: With `CN(Cc1cc2nc(-c3c[nH]c4ccccc34)nc(N3CCOCC3)c2s1)c1ncc(C(=O)NO)cn1` [Compound 184] as the compound, how does the IC50 read?
Answer: < 0.1 µM

Question: `CN(Cc1cc2nc(-c3ccc4c(c3)OCCN4)nc(N3CCOCC3)c2s1)c1ncc(C(=O)NO)cn1` [Compound 191] was tested. Which IC50 did it give?
Answer: < 0.1 µM
